Key:
[1] = Highest permeabilizer concentration that gives a stable emulsion; type: physicochemical
Method: As indicated above, prior to delivery to the tissue of interest, a working emulsion of the permeabilizer is prepared, preferably from one of the stocks. The working emulsion preferably comprises one or more permeabilizers in a buffer. The concentration of the permeabilizer will depend on the permeabilizer used in the procedure being conducted. Because ethylene brassylate and civetone are liquids, they can be administered to a tissue at concentrations up to 100%. Preferably, the working emulsion contains ethylene brassylate, civetone, or a combination of both at a concentration of between approximately 0.1 and 20% (volume/volume). As indicated above, Cyclopentadecanone and cyclopentadecanolide, however, are solids. The highest concentration of cyclopentadecanone or cyclopentadecanolide that can be made into a stable emulsion is approximately 25% (weight/volume). As a result, the working emulsion preferably contains cyclopentadecanone or cyclopentadecanolide at a concentration of between approximately 0.1 and 25%. Particularly preferred is a working solution that contains cyclopentadecanone, cyclopentadecanolide, or a combination of both, at a concentration of between approximately 0.1 and 7%.

[2] = tested on: Spheroids made from MCF-7 human breast carcinoma cells; test: Doxorubicin penetration and morphology in MCF-7 spheroids treated with permeabilizer, with or without hyperthermia; type: cell-based
Method: Spheroids made from MCF-7 human breast carcinoma cells were treated with 3.0 micrograms per milliliter doxorubicin for six hours at various temperatures and under various permeabilizer conditions. Doxorubicin is an anti-neoplastic drug frequently used in chemotherapy procedures. When the spheroids were treated for six hours at 37.0° C. in the absence of permeabilizer, the drug penetrated only six cell layers into the spheroids. […] The spheroids in this experiment also underwent a characteristic change in morphology. […] These changes in spheroid morphology and drug penetration were never observed in control spheroids that received no permeabilizer treatment. Furthermore, these changes were never observed in spheroids that received sham treatment, which included exposure to all components used in the permeabilizer emulsion except the permeabilizer.
In this example, spheroids were treated as in example 1 with the addition of hyperthermia as an additional variable in the experiment. Hyperthermia in this example involved raising the temperature of the spheroids to approximately 40° C. […] Hyperthermia treatment alone had no effect on penetration of doxorubicin or upon the intercellular space.

[3] = tested on: Du-145 tumors grafted onto mice; test: Adenovirus vector diffusion (X-gal staining) in Du-145 xenograft tumors injected with permeabilizer, with or without hyperthermia; type: in vivo; conditions: single injection of 30 microliters, tumor retrieved at 72 hours
Method: Du-145 tumors grafted onto mice were injected with cyclopentadecanolide and adenovirus vector that contained the beta-galactosidase transgene, all in PBS. The tumor was retrieved 72 hours after treatment, cryosectioned, and stained with X-gal to visualize beta-galactosidase expression.
In this example, tumors were heated to 41.0° C. using an unfocused ultrasonic transducer prior to treatment with permeabilizer and virus vector. When hyperthermia was established, the tumor was given a single injection of 30 microliters containing 6% cyclopertadecanolide and 2×10^10 adenovirus vectors that contained the beta-galactosidase transgene, all in PBS. Following the injection, the hyperthermia was continued for an additional 45 minutes. That is, the elevated temperature was maintained for 45 minutes after injection. The tumor was retrieved 72 hours following the injection, cryosectioned, and stained with X-gal to visualize beta-galactosidase expression.
The voids were filled with light amber colored, gelatinous material, indicating break-down of the tissue cell membranes.

[4] = tested on: spheroids made from DU-145 human prostate carcinoma cells; test: Adenovirus vector (beta-galactosidase reporter) penetration into DU-145 spheroids treated with permeabilizer, with or without hyperthermia; type: cell-based
Method: The spheroids made from DU-145 human prostate carcinoma cells were grown to an average diameter of 500 micrometers and then suspended in culture medium containing 0.1% to 3% cyclopentadecanolide plus adenovirus vectors that had beta-galactosidase as a reporter transgene. Once a viral vector entered a cell, beta-galactosidase was expressed constitutively under control of the human CMV promoter. The experimental protocol called for the spheroids to be incubated for 48 to 72 hours following treatment to permit transgene expression. It should be noted that a reporter gene was utilized in this Example, as well as in Examples 4 and 5, only to facilitate determination of the extent of vector diffusion. Any other polynucleotide could be used in this system, including suicide genes and genes encoding therapeutic proteins.
Within 6 to 24 hours following permeabilizer treatment, depending upon the permeabilizer concentration used, the cells within the spheroid regions where the intercellular space was increased became detached from the spheroid.

[5] = 6% permeabilizer and 2×10^10 adenovirus vectors, hyperthermia 41.0° C. kept for 45 minutes after injection

SMILES | highest concentration that can be made into a stable emulsion [1] | spheroid morphology / intercellular space ([2]; 0.6% cyclopentadecanone, 37.0° C., six hours) | degree to which doxorubicin penetrated the spheroids ([2]; 3.0 micrograms per milliliter doxorubicin, six hours, culture medium containing 0.6% cyclopentadecanone, 37.0° C.) | permeabilizer activity with concurrent hyperthermia ([2]; as example 1 plus hyperthermia, approximately 40° C.) | doxorubicin penetration with permeabilizer and hyperthermia ([2]; as example 1 plus hyperthermia, approximately 40° C., doxorubicin fluorescence) | intercellular space with concurrent hyperthermia ([2]; as example 1 plus hyperthermia, approximately 40° C., intact and sectioned spheroids) | depth of doxorubicin penetration into the spheroids ([2]; 3.0 micrograms per milliliter doxorubicin, six hours, 37.0° C., absence of permeabilizer) | effect of hyperthermia treatment alone on penetration of doxorubicin ([2]; hyperthermia approximately 40° C., no permeabilizer) | X-gal staining from beta-galactosidase expression in tumor sections [3, 5] | tumor section morphology (tissue destruction) [3, 5] | X-gal staining from beta-galactosidase expression in tumor sections ([3]; 12% cyclopentadecanolide and 2×10^10 adenovirus vectors, no hyperthermia) | transgene expression in cells that detached from the spheroids ([4]; 0.1% to 3% cyclopentadecanolide plus adenovirus vectors with beta-galactosidase reporter transgene) | cell detachment from the spheroid when hyperthermia was included ([4]; 0.1% to 3% cyclopentadecanolide plus hyperthermia)
O=C1CCCCCCCCCCCCCC1 [cyclopentadecanone] | approximately 25 % (weight/volume) | increase in intercellular space | essentially tripled | marked potentiation of permeabilizer activity | penetrated all recesses of the spheroids | greater increase in intercellular space |  |  |  |  |  |  | 
COc1cccc2c1C(=O)c1c(O)c3c(c(O)c1C2=O)C[C@@](O)(C(=O)CO)C[C@@H]3O[C@H]1C[C@H](N)[C@H](O)[C@H](C)O1 [doxorubicin, reference compound] |  |  |  |  |  |  | six | no effect |  |  |  |  | 
O=C1CCCCCCCCCCCCCCO1 [cyclopentadecanolide] | approximately 25 % (weight/volume) |  |  |  |  |  |  |  | pervaded the remainder of the sections | large voids in the center of the sections | pervasive throughout the section | exhibit beta-galactosidase activity | grossly exacerbated

— patent US6794376B2, “Methods and compositions for enhancing diffusion of therapeutic agents through tissue” (William Beaumont Hospital, priority 2000, dated 2004)
